# Patent US20140179664A1, “Heterocyclyl Pyrimidine Analogues As JAK Inhibitors” (Cellzome Limited, priority 2011, published 2014)
# How the values were obtained:
# Format in all cases: binding
# JAK2 = biological target: T1, JAK2 (Homo sapiens, UniProt O60674); test: Kinobeads assay, JAK2; settings: mixed Molt4/Ramos lysate, read-out: Inhibition values (IC50) JAK2
# T1 construct: endogenous in cells; host or cells: Molt4 (ATCC CRL-1582) and Ramos (ATCC CRL-1596), mixed lysate 1:2
# Summary of the method: (§1)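 IC50s come from capture competition: compound at various concentrations versus an immobilized aminopyrido-pyrimidine ligand for kinases in 1:2 Molt4/Ramos lysate (10 mg/mL), 3 h in a cold room. Captured JAK-family kinases were measured by specific-antibody dot blot with Odyssey infrared detection.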
# JAK3 = biological target: T2, JAK3 (Homo sapiens, UniProt P52333); test: Kinobeads assay, JAK3; settings: mixed Molt4/Ramos lysate, read-out: Inhibition values (IC50) JAK3
# T2 construct: endogenous in cells; host or cells: Molt4 (ATCC CRL-1582) and Ramos (ATCC CRL-1596), mixed lysate 1:2
# T2 sequence (P52333 1-1124): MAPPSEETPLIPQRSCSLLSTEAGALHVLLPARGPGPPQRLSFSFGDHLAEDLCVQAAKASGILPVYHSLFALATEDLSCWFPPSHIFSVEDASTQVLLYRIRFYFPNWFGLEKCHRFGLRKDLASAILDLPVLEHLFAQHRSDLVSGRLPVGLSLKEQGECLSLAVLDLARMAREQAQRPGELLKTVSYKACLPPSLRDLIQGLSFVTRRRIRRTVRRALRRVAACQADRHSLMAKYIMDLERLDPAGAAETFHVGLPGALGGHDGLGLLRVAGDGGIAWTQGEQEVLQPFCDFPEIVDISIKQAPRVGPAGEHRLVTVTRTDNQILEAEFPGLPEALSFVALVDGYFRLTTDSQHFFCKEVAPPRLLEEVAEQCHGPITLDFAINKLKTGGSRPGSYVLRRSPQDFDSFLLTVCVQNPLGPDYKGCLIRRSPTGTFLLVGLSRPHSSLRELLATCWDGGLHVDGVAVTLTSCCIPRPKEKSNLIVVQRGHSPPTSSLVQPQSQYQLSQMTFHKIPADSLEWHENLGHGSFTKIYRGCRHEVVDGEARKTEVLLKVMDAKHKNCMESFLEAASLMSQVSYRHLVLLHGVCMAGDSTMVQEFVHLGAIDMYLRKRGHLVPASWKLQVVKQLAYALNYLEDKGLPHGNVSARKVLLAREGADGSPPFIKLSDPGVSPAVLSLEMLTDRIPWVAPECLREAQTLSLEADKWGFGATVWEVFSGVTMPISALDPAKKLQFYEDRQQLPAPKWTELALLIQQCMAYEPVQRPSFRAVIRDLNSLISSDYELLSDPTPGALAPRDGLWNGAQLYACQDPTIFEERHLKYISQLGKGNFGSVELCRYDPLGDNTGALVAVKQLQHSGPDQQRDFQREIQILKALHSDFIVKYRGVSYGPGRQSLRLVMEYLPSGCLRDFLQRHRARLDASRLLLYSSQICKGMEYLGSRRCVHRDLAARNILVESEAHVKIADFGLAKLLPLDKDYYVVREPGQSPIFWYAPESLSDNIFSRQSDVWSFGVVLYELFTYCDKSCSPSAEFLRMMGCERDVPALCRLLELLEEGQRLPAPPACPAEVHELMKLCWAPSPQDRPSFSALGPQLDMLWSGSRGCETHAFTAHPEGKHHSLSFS
# Summary of the method: as §1
# TYK2 = biological target: T3, TYK2 (Homo sapiens, UniProt P29597); test: Kinobeads assay, TYK2; settings: mixed Molt4/Ramos lysate, read-out: Inhibition values (IC50) TYK2
# T3 construct: endogenous in cells; host or cells: Molt4 (ATCC CRL-1582) and Ramos (ATCC CRL-1596), mixed lysate 1:2
# T3 sequence (P29597 whole entry): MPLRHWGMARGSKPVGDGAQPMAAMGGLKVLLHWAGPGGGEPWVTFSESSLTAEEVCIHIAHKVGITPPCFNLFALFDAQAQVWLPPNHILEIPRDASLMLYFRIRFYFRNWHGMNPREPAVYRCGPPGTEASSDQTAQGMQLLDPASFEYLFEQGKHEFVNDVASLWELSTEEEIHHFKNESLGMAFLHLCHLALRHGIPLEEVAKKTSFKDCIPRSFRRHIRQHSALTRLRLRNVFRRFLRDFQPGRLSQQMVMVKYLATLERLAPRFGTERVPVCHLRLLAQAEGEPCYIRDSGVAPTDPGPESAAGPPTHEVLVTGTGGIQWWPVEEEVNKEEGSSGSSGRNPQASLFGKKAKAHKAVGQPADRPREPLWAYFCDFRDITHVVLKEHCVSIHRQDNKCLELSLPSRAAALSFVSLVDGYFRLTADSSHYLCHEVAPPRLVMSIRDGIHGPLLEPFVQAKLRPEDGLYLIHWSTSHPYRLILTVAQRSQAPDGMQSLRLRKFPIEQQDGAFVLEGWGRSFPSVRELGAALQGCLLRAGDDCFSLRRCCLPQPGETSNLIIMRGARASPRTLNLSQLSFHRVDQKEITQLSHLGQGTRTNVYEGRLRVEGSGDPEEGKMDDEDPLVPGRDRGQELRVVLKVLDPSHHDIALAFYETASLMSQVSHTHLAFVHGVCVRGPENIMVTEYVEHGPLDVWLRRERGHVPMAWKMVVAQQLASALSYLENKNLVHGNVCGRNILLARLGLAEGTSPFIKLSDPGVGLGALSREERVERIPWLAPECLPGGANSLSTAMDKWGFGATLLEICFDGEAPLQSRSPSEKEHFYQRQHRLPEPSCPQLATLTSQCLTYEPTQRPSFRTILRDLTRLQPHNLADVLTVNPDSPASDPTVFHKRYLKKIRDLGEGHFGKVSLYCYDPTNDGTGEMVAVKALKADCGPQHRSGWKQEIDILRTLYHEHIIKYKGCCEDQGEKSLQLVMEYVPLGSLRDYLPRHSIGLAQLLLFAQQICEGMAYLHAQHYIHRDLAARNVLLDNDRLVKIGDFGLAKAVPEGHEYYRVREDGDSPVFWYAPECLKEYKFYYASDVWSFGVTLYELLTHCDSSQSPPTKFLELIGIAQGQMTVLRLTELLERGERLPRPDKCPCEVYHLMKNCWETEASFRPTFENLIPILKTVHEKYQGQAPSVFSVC
# Summary of the method: as §1
# T1 sequence (O60674 whole entry): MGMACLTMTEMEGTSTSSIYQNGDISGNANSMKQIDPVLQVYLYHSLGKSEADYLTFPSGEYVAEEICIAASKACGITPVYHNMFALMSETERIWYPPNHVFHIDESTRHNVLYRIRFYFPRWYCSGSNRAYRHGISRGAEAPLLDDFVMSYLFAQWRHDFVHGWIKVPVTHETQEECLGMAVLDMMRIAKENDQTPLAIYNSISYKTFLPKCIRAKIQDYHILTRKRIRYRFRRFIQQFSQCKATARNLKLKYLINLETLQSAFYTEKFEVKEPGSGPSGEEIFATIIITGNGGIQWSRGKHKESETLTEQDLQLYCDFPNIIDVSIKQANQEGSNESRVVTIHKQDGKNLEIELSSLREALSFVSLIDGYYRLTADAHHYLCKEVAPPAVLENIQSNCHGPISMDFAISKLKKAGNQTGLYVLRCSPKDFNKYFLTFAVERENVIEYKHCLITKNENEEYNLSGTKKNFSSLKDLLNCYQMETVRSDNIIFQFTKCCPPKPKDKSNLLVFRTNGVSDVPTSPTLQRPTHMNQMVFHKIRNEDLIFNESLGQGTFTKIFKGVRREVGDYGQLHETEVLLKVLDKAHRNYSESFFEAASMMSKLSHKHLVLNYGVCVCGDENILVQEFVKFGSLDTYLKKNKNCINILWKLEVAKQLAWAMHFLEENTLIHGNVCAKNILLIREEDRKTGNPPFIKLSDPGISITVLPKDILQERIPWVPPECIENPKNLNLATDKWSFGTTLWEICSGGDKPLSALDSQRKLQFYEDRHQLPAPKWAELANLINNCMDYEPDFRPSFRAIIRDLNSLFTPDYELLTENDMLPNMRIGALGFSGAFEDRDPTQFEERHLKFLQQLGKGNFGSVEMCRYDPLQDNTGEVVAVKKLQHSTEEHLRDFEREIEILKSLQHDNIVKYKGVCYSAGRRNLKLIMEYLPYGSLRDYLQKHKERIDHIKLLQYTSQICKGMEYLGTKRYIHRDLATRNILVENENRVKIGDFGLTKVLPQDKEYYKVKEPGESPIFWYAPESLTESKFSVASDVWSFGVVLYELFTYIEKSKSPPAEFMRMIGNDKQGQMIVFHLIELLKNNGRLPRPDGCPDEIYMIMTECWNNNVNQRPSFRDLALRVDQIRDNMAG
IC50 (JAK2),IC50 (JAK3),IC50 (TYK2),SMILES
≥ 10000 nM,100 to 1000 nM,1000 to 10000 nM,Cn1cc(Nc2ncc(F)c(N[C@H](CO)c3ccccc3)n2)cn1 [Compound 3]
100 to 1000 nM,< 100 nM,100 to 1000 nM,OCCn1cc(Nc2ncc(Cl)c(N[C@H](CO)c3cccc(F)c3)n2)cn1 [Compound 86]
1000 to 10000 nM,< 100 nM,100 to 1000 nM,OCCn1cc(Nc2ncc(Cl)c(N[C@H](CO)c3cccnc3)n2)cn1 [Compound 92]
1000 to 10000 nM,< 100 nM,100 to 1000 nM,CN(C)CCNC(=O)Cn1cc(Nc2ncc(Cl)c(N[C@H](CO)c3ccccc3)n2)cn1 [Compound 89]
1000 to 10000 nM,< 100 nM,100 to 1000 nM,CN(C)CCCNC(=O)Cn1cc(Nc2ncc(Cl)c(N[C@H](CO)c3ccccc3)n2)cn1 [Compound 90]
1000 to 10000 nM,< 100 nM,100 to 1000 nM,Cn1cc(Nc2ncc(Cl)c(N[C@H](CO)c3cccnc3)n2)cn1 [Compound 91]
100 to 1000 nM,< 100 nM,100 to 1000 nM,Cn1cc(Nc2ncc(Cl)c(N[C@H](CO)c3cccc(F)c3)n2)cn1 [Compound 85]
1000 to 10000 nM,100 to 1000 nM,100 to 1000 nM,OCCn1cc(Nc2ncc(Cl)c(NC(CO)c3cccc(Br)c3)n2)cn1 (stereo not drawn) [Compound 93]
100 to 1000 nM,< 100 nM,100 to 1000 nM,NC(=O)Cn1cc(Nc2ncc(Cl)c(N[C@H](CO)c3cccc(F)c3)n2)cn1 [Compound 87]

SMILES,IC50 (JAK2),IC50 (JAK3),IC50 (TYK2)
OC[C@@H](Nc1nc(Nc2cn[nH]c2)ncc1Cl)c1cccc(F)c1 [Compound 88],100 to 1000 nM,< 100 nM,100 to 1000 nM
